Source: ChEMBL document CHEMBL1201861, “Genomics of Drug Sensitity in Cancer screening data, Wellcome Trust Sanger Institute”

What was measured:
Test in all cases: cells
COR-L88 = type: functional, cell-based; conditions: Homo sapiens;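 further: growth inhibition of COR-L88 cells, read out with a cell viability assay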
Description: SANGER: Inhibition of human COR-L88 cell growth in a cell viability assay.

Ca-Ski = type: functional, cell-based; conditions: Homo sapiens;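 further: cell viability assay measuring inhibition of Ca-Ski cell growth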
Description: SANGER: Inhibition of human Ca-Ski cell growth in a cell viability assay.

Ca9-22 = type: functional, cell-based, Homo sapiens; conditions: Homo sapiens, Ca9-22;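 further: growth inhibition of Ca9-22 cells, read out with a cell viability assay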
Description: SANGER: Inhibition of human Ca9-22 cell growth in a cell viability assay.

DMS-273 = type: functional, cell-based, Homo sapiens; conditions: Homo sapiens, DMS-273
Description: SANGER: Inhibition of human DMS-273 cell growth in a cell viability assay.

DOK = type: functional, cell-based, Homo sapiens; conditions: Homo sapiens, DOK;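 further: cell viability assay read-out, values reflect inhibition of cell growth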
Description: SANGER: Inhibition of human DOK cell growth in a cell viability assay.

DU-145 = type: functional, cell-based, Homo sapiens; conditions: Homo sapiens, DU-145
Description: SANGER: Inhibition of human DU-145 cell growth in a cell viability assay.

EW-11 = type: functional, cell-based, Homo sapiens; conditions: Homo sapiens, EW-11;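 further: growth inhibition of human EW-11 cells, measured with a cell viability assay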
Description: SANGER: Inhibition of human EW-11 cell growth in a cell viability assay.

GI-ME-N = type: functional, cell-based, Homo sapiens; conditions: Homo sapiens, GI-ME-N;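 further: growth inhibition of human GI-ME-N cells, read out with a cell viability assay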
Description: SANGER: Inhibition of human GI-ME-N cell growth in a cell viability assay.

GMS-10 = type: functional, cell-based, Homo sapiens; conditions: Homo sapiens, GMS-10;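 further: growth inhibition of GMS-10 cells, read out as cell viability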
Description: SANGER: Inhibition of human GMS-10 cell growth in a cell viability assay.

GT3TKB = type: functional, cell-based, Homo sapiens; conditions: Homo sapiens, GT3TKB;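 further: growth inhibition of the cell line, read out with a cell viability assay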
Description: SANGER: Inhibition of human GT3TKB cell growth in a cell viability assay.

HCC 2998 = type: functional, cell-based, Homo sapiens; conditions: Homo sapiens, HCC 2998;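 further: growth inhibition of human HCC2998 cells, measured with a cell viability read-out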
Description: SANGER: Inhibition of human HCC2998 cell growth in a cell viability assay.

HCT-116 = type: functional, cell-based, Homo sapiens; conditions: Homo sapiens, HCT-116
Description: SANGER: Inhibition of human HCT-116 cell growth in a cell viability assay.

Huh-7 = type: functional, cell-based, Homo sapiens; conditions: Homo sapiens, Huh-7;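 further: HuH-7 cell growth inhibition, read out with a cell viability assay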
Description: SANGER: Inhibition of human HuH-7 cell growth in a cell viability assay.

IGR-1 = type: functional, cell-based, Homo sapiens; conditions: Homo sapiens, IGR-1;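 further: growth inhibition of human IGR-1 cells, read out with a cell viability assay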
Description: SANGER: Inhibition of human IGR-1 cell growth in a cell viability assay.

IST-MEL1 = type: functional, cell-based, Homo sapiens; conditions: Homo sapiens, IST-MEL1;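 further: growth inhibition of the cell line, read out with a cell viability assay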
Description: SANGER: Inhibition of human IST-MEL1 cell growth in a cell viability assay.

IST-MES1 = type: functional, cell-based, Homo sapiens; conditions: Homo sapiens, IST-MES1;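 further: growth inhibition of IST-MES1 cells, measured with a cell viability assay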
Description: SANGER: Inhibition of human IST-MES1 cell growth in a cell viability assay.

KINGS-1 = type: functional, cell-based, Homo sapiens; conditions: Homo sapiens, KINGS-1;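 further: cell viability assay measuring suppression of KINGS-1 cell growth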
Description: SANGER: Inhibition of human KINGS-1 cell growth in a cell viability assay.

KYSE-450 = type: functional, cell-based; conditions: Homo sapiens;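 further: cell growth inhibition measured by a viability assay in human KYSE-450 cells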
Description: SANGER: Inhibition of human KYSE-450 cell growth in a cell viability assay.

LB996-RCC = type: functional, cell-based; conditions: Homo sapiens
Description: SANGER: Inhibition of human LB996-RCC cell growth in a cell viability assay.

LCLC-103H cell line = type: functional, cell-based, Homo sapiens; conditions: Homo sapiens, LCLC-103H
Description: SANGER: Inhibition of human LCLC-103H cell growth in a cell viability assay.

LN-405 = type: functional, cell-based, Homo sapiens; conditions: Homo sapiens, LN-405
Description: SANGER: Inhibition of human LN-405 cell growth in a cell viability assay.

Lu-65 = type: functional, cell-based; conditions: Homo sapiens;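 further: growth inhibition of Lu-65 cancer cells, read out by a cell viability assay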
Description: SANGER: Inhibition of human LU-65 cell growth in a cell viability assay.

MIA PaCa-2 = type: functional, cell-based, Homo sapiens; conditions: Homo sapiens, MIA PaCa-2;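 further: growth inhibition of MIA PaCa-2 cells, read out with a cell viability assay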
Description: SANGER: Inhibition of human MIA-PaCa-2 cell growth in a cell viability assay.

MLMA = type: functional, cell-based, Homo sapiens; conditions: Homo sapiens, MLMA;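 further: growth inhibition of MLMA cells (human), determined through a cell viability readout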
Description: SANGER: Inhibition of human MLMA cell growth in a cell viability assay.

NB69 = type: functional, cell-based, Homo sapiens; conditions: Homo sapiens, NB69;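 further: growth inhibition of NB69 cells, determined by a cell viability assay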
Description: SANGER: Inhibition of human NB69 cell growth in a cell viability assay.

NCI-H1395 = type: functional, cell-based, Homo sapiens; conditions: Homo sapiens, NCI-H1395;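 further: cell viability assay read-out quantifying reduced proliferation of human NCI-H1395 cells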
Description: SANGER: Inhibition of human NCI-H1395 cell growth in a cell viability assay.

NCI-H1792 = type: functional, cell-based, Homo sapiens; conditions: Homo sapiens, NCI-H1792;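 further: growth inhibition of human NCI-H1792 cells, read out as cell viability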
Description: SANGER: Inhibition of human NCI-H1792 cell growth in a cell viability assay.

NCI-H1793 = type: functional, cell-based, Homo sapiens; conditions: Homo sapiens, NCI-H1793;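 further: cell growth inhibition, read out by a cell viability assay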
Description: SANGER: Inhibition of human NCI-H1793 cell growth in a cell viability assay.

NCI-H2122 = type: functional, cell-based, Homo sapiens; conditions: Homo sapiens, NCI-H2122;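 further: growth inhibition of the cells, read out with a cell viability assay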
Description: SANGER: Inhibition of human NCI-H2122 cell growth in a cell viability assay.

NCI-H2228 = type: functional, cell-based, Homo sapiens; conditions: Homo sapiens, NCI-H2228;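 further: growth inhibition of human NCI-H2228 cells, read out by a cell viability assay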
Description: SANGER: Inhibition of human NCI-H2228 cell growth in a cell viability assay.

NCI-H596 = type: functional, cell-based, Homo sapiens; conditions: Homo sapiens, NCI-H596;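 further: growth inhibition of NCI-H596 cells, read out with a cell viability assay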
Description: SANGER: Inhibition of human NCI-H596 cell growth in a cell viability assay.

NCI-H69 = type: functional, cell-based; conditions: Homo sapiens;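 further: growth inhibition of the cell line, read out with a cell viability assay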
Description: SANGER: Inhibition of human NCI-H69 cell growth in a cell viability assay.

NCI-H810 = type: functional, cell-based, Homo sapiens; conditions: Homo sapiens, NCI-H810;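 further: IC50 reflects inhibition of cancer cell line growth, read out with a cell viability assay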
Description: SANGER: Inhibition of human NCI-H810 cell growth in a cell viability assay.

NCI-N87 = type: functional, cell-based, Homo sapiens; conditions: Homo sapiens, NCI-N87;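 further: growth inhibition of human NCI-N87 cells, read out with a cell viability assay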
Description: SANGER: Inhibition of human NCI-N87 cell growth in a cell viability assay.

OMC-1 = type: functional, cell-based, Homo sapiens; conditions: Homo sapiens, OMC-1;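 further: growth inhibition of the OMC-1 cell line, measured by a cell viability assay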
Description: SANGER: Inhibition of human OMC-1 cell growth in a cell viability assay.

OVCAR-3 = type: functional, cell-based, Homo sapiens; conditions: Homo sapiens, OVCAR-3;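 further: growth inhibition of human OVCAR-3 cells, determined by a cell viability assay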
Description: SANGER: Inhibition of human OVCAR-3 cell growth in a cell viability assay.

QIMR-WIL = type: functional, cell-based; conditions: Homo sapiens;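 further: growth inhibition of QIMR-WIL cells, read out with a cell viability assay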
Description: SANGER: Inhibition of human QIMR-WIL cell growth in a cell viability assay.

SF-126 = type: functional, cell-based, Homo sapiens; conditions: Homo sapiens, SF-126;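 further: growth inhibition of human SF126 cells, read out with a cell viability assay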
Description: SANGER: Inhibition of human SF126 cell growth in a cell viability assay.

SW1990 = type: functional, cell-based, Homo sapiens; conditions: Homo sapiens, SW1990;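 further: cell growth inhibition determined with a viability assay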
Description: SANGER: Inhibition of human SW1990 cell growth in a cell viability assay.

SW684 = type: functional, cell-based, Homo sapiens; conditions: Homo sapiens, SW684;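 further: growth inhibition of human SW684 cells, measured by a cell viability assay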
Description: SANGER: Inhibition of human SW684 cell growth in a cell viability assay.

SW756 = type: functional, cell-based, Homo sapiens; conditions: Homo sapiens, SW756;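 further: growth inhibition of human SW756 cells, read out with a cell viability assay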
Description: SANGER: Inhibition of human SW756 cell growth in a cell viability assay.

SiHa = type: functional, cell-based, Homo sapiens; conditions: Homo sapiens, SiHa;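 further: Viability-based readout of growth inhibition in SiHa cells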
Description: SANGER: Inhibition of human SiHa cell growth in a cell viability assay.

5637 = type: functional, cell-based, Homo sapiens; conditions: Homo sapiens
Description: SANGER: Inhibition of human 5637 cell growth in a cell viability assay.

BFTC-909 = type: functional, cell-based, Homo sapiens; conditions: Homo sapiens, BFTC-909
Description: SANGER: Inhibition of human BFTC-909 cell growth in a cell viability assay.

C32 = type: functional, cell-based, Homo sapiens; conditions: Homo sapiens, C32;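 further: cell viability assay, with IC50 reflecting inhibition of C32 cell growth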
Description: SANGER: Inhibition of human C32 cell growth in a cell viability assay.

TGBC1TKB = type: functional, cell-based, Homo sapiens; conditions: Homo sapiens, TGBC1TKB;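 further: growth inhibition of TGBC1TKB cells, read out by a cell viability assay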
Description: SANGER: Inhibition of human TGBC1TKB cell growth in a cell viability assay.

UACC-257 = type: functional, cell-based, Homo sapiens; conditions: Homo sapiens, UACC-257
Description: SANGER: Inhibition of human UACC-257 cell growth in a cell viability assay.

VA-ES-BJ = type: functional, cell-based, Homo sapiens; conditions: Homo sapiens, VA-ES-BJ;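 further: growth inhibition of the VA-ES-BJ cell line, read out by a cell viability assay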
Description: SANGER: Inhibition of human VA-ES-BJ cell growth in a cell viability assay.

CHP-212 = type: functional, cell-based, Homo sapiens; conditions: Homo sapiens, CHP-212
Description: SANGER: Inhibition of human CHP-212 cell growth in a cell viability assay.

HMV-2 cell line = type: functional, cell-based, Homo sapiens; conditions: Homo sapiens, HMV-2;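 further: growth inhibition of HMV-II cells, read out with a cell viability assay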
Description: SANGER: Inhibition of human HMV-II cell growth in a cell viability assay.

SMILES: COc1ccc(-c2ccc3c(N4CCOC[C@@H]4C)nc(N4CCOC[C@@H]4C)nc3n2)cc1CO [AZD-8055]
- IC50 (COR-L88): 0.423 µM
- IC50 (Ca-Ski): > 2 µM
- IC50 (Ca9-22): 0.787 µM
- IC50 (DMS-273): 0.769 µM
- IC50 (DOK): 0.513 µM
- IC50 (DU-145): > 2 µM
- IC50 (EW-11): 1.62 µM
- IC50 (GI-ME-N): 1.03 µM
- IC50 (GMS-10): 1.75 µM
- IC50 (GT3TKB): > 2 µM
- IC50 (HCC 2998): 1.93 µM
- IC50 (HCT-116): 1.43 µM
- IC50 (Huh-7): 0.434 µM
- IC50 (IGR-1): > 2 µM
- IC50 (IST-MEL1): 1.19 µM
- IC50 (IST-MES1): > 2 µM
- IC50 (KINGS-1): > 2 µM
- IC50 (KYSE-450): 0.827 µM
- IC50 (LB996-RCC): > 2 µM
- IC50 (LCLC-103H cell line): > 2 µM
- IC50 (LN-405): 1.28 µM
- IC50 (Lu-65): 1.26 µM
- IC50 (MIA PaCa-2): 0.929 µM
- IC50 (MLMA): > 2 µM
- IC50 (NB69): 0.135 µM
- IC50 (NCI-H1395): > 2 µM
- IC50 (NCI-H1792): 0.971 µM
- IC50 (NCI-H1793): 0.534 µM
- IC50 (NCI-H2122): > 2 µM
- IC50 (NCI-H2228): 1.27 µM
- IC50 (NCI-H596): 1.26 µM
- IC50 (NCI-H69): 1.67 µM
- IC50 (NCI-H810): > 2 µM
- IC50 (NCI-N87): > 2 µM
- IC50 (OMC-1): 0.727 µM
- IC50 (OVCAR-3): > 2 µM
- IC50 (QIMR-WIL): 0.452 µM
- IC50 (SF-126): 0.887 µM
- IC50 (SW1990): 1.48 µM
- IC50 (SW684): 1.97 µM
- IC50 (SW756): > 2 µM
- IC50 (SiHa): > 2 µM
- IC50 5637: 1.77 µM
- IC50 (BFTC-909): 1.29 µM
- IC50 (C32): 0.725 µM
- IC50 (TGBC1TKB): 1.33 µM
- IC50 (UACC-257): > 2 µM
- IC50 (VA-ES-BJ): 0.343 µM
- IC50 (CHP-212): 0.437 µM

SMILES: CN(Cc1cnc2nc(N)nc(N)c2n1)c1ccc(C(=O)N[C@@H](CCC(=O)O)C(=O)O)cc1 [METHOTREXATE]
- IC50 (Ca-Ski): > 0.2 µM
- IC50 (Ca9-22): > 0.2 µM
- IC50 (DMS-273): > 0.2 µM
- IC50 (DOK): > 0.2 µM
- IC50 (DU-145): > 0.2 µM
- IC50 (EW-11): > 0.2 µM
- IC50 (GI-ME-N): 0.147 µM
- IC50 (GMS-10): > 0.2 µM
- IC50 (GT3TKB): > 0.2 µM
- IC50 (HCC 2998): > 0.2 µM
- IC50 (HCT-116): > 0.2 µM
- IC50 (HMV-2 cell line): > 0.2 µM
- IC50 (Huh-7): > 0.2 µM
- IC50 (IGR-1): > 0.2 µM
- IC50 (IST-MEL1): 0.126 µM
- IC50 (IST-MES1): > 0.2 µM
- IC50 (KINGS-1): > 0.2 µM
- IC50 (KYSE-450): > 0.2 µM
- IC50 (LCLC-103H cell line): 0.174 µM
- IC50 (LN-405): > 0.2 µM
- IC50 (Lu-65): > 0.2 µM
- IC50 (MIA PaCa-2): > 0.2 µM
- IC50 (MLMA): 0.0965 µM
- IC50 (NB69): > 0.2 µM
- IC50 (NCI-H1395): > 0.2 µM
- IC50 (NCI-H1792): 0.114 µM
- IC50 (NCI-H1793): > 0.2 µM
- IC50 (NCI-H2122): 0.151 µM
- IC50 (NCI-H2228): > 0.2 µM
- IC50 (NCI-H596): > 0.2 µM
- IC50 (NCI-H810): > 0.2 µM
- IC50 (NCI-N87): > 0.2 µM
- IC50 (OMC-1): > 0.2 µM
- IC50 (OVCAR-3): > 0.2 µM
- IC50 (QIMR-WIL): 0.139 µM
- IC50 (SF-126): > 0.2 µM
- IC50 (SW1990): > 0.2 µM
- IC50 (SW684): > 0.2 µM
- IC50 (SW756): > 0.2 µM
- IC50 (SiHa): > 0.2 µM
- IC50 5637: > 0.2 µM
- IC50 (BFTC-909): > 0.2 µM
- IC50 (C32): > 0.2 µM
- IC50 (TGBC1TKB): > 0.2 µM
- IC50 (UACC-257): > 0.2 µM
- IC50 (VA-ES-BJ): > 0.2 µM
- IC50 (CHP-212): > 0.2 µM

SMILES: Cn1cc(C2=C(c3ccc(Cl)cc3Cl)C(=O)NC2=O)c2ccccc21 [SB-216763]
- IC50 (Ca-Ski): > 10 µM
- IC50 (Ca9-22): > 10 µM
- IC50 (DMS-273): > 10 µM
- IC50 (DOK): > 10 µM
- IC50 (DU-145): > 10 µM
- IC50 (EW-11): > 10 µM
- IC50 (GI-ME-N): > 10 µM
- IC50 (GMS-10): > 10 µM
- IC50 (GT3TKB): > 10 µM
- IC50 (HCC 2998): > 10 µM
- IC50 (HCT-116): > 10 µM
- IC50 (HMV-2 cell line): 7.68 µM
- IC50 (Huh-7): > 10 µM
- IC50 (IGR-1): > 10 µM
- IC50 (IST-MEL1): > 10 µM
- IC50 (IST-MES1): > 10 µM
- IC50 (KINGS-1): > 10 µM
- IC50 (KYSE-450): > 10 µM
- IC50 (LCLC-103H cell line): > 10 µM
- IC50 (LN-405): > 10 µM
- IC50 (Lu-65): > 10 µM
- IC50 (MIA PaCa-2): > 10 µM
- IC50 (MLMA): > 10 µM
- IC50 (NB69): > 10 µM
- IC50 (NCI-H1395): > 10 µM
- IC50 (NCI-H1792): > 10 µM
- IC50 (NCI-H1793): > 10 µM
- IC50 (NCI-H2122): > 10 µM
- IC50 (NCI-H2228): > 10 µM
- IC50 (NCI-H596): > 10 µM
- IC50 (NCI-H810): > 10 µM
- IC50 (NCI-N87): > 10 µM
- IC50 (OVCAR-3): > 10 µM
- IC50 (QIMR-WIL): > 10 µM
- IC50 (SF-126): > 10 µM
- IC50 (SW1990): > 10 µM
- IC50 (SW684): > 10 µM
- IC50 (SiHa): > 10 µM
- IC50 5637: > 10 µM
- IC50 (BFTC-909): > 10 µM
- IC50 (C32): > 10 µM
- IC50 (TGBC1TKB): > 10 µM
- IC50 (UACC-257): > 10 µM
- IC50 (VA-ES-BJ): > 10 µM
- IC50 (CHP-212): > 10 µM
